Results on one molecule are retold here after ChEMBL document CHEMBL1649523, “Prospective open-label study of the administration of two-percent voriconazole eye drops” (2009).

The term MIC90 denotes the lowest concentration that inhibits either 90% of growth or 90% of the strains tested, depending on the study. A low value points to greater potency.

Molecules are shown by their SMILES. ≈ marks a conversion by molar mass, not a printed value.

What all share (type): functional
The test system of test [1] is Aspergillus fumigatus. Briefly: Antifungal against Aspergillus fumigatus.
In test [2] the test system is Histoplasma capsulatum. Briefly: Antifungal against Histoplasma capsulatum.
In test [3] the test system is Candida tropicalis. Kind of test: Antifungal against Candida tropicalis.
Test [4] concerns Aspergillus flavus. Briefly: Antifungal against Aspergillus flavus.
The subject of test [5] is Fusarium solani. Kind of test: Antifungal against Fusarium solani by microdilution technique. (In general: Broth dilution looks for growth in wells or tubes with falling amounts of substance.)
Test [6] in a line: Antifungal against Paecilomyces lilacinus. To be noted: Purpureocillium lilacinum.
Test [7] concerns Candida parapsilosis. Kind of test: Antifungal against Candida parapsilosis. The note with it: Lodderomyces parapsilosis.
Test [8] relates to Fusarium sp. Kind of test: Antifungal against Fusarium sp.
The subject of test [9] is Scedosporium apiospermum. Kind of test: Antifungal against Scedosporium apiospermum.
Test [10] concerns Candida albicans. Kind of test: Antifungal against Candida albicans.
For test [11], the system named is Blastomyces dermatitidis. Kind of test: Antifungal against Blastomycoides dermatitidis.
A short description of test [12]: Antifungal against Scedosporium.
Test [13] can be described thus: Antifungal against Coccidioides immitis.
The nature of test [14]: Antifungal against Acremonium alabamense. To be noted: Thielavia terrestris.
Test [15] deals with Talaromyces marneffei. Briefly: Antifungal against Penicillium marneffei.
The subject of test [16] is Cryptococcus neoformans. Kind of test: Antifungal against Cryptococcus neoformans.
Test [17] relates to Curvularia. Briefly: Antifungal against Curvularia.

With `C[C@@H](c1ncncc1F)[C@](O)(Cn1cncn1)c1ccc(F)cc1F` [VORICONAZOLE], the MIC90 in [1] was 0.5 µg/mL (≈ 1.43 µM); in test [2] it was 0.25 µg/mL (≈ 0.716 µM); in test [3], above 0.25 µg/mL; in [4], 0.5 µg/mL (≈ 1.43 µM); in test [5] it was 2 µg/mL (≈ 5.73 µM); in [6], 0.5 µg/mL (≈ 1.43 µM). In addition, the MIC90 in [7] turned out to be 0.12 µg/mL (≈ 0.344 µM); in [8], 0.25 µg/mL (≈ 0.716 µM); in [9] it was 0.5 µg/mL (≈ 1.43 µM); in [10] it was 0.06 µg/mL (≈ 0.172 µM); in test [11], 0.25 µg/mL (≈ 0.716 µM); in [12], 0.5 µg/mL (≈ 1.43 µM). Besides, the MIC90 in test [13] amounted to 0.25 µg/mL (≈ 0.716 µM); in [14], 0.25 µg/mL (≈ 0.716 µM); in test [15], 0.03 µg/mL (≈ 0.0859 µM); in test [16] it was 0.06 µg/mL (≈ 0.172 µM); in [17], 0.06 µg/mL (≈ 0.172 µM).
